Results: article PMC12081876, “Identification of PTGR2 inhibitors as a new therapeutic strategy for diabetes and obesity” (EMBO Molecular Medicine, 2025)
Values joined by “and” are separate entries in the source; they are usually repeats but may differ in a detail not shown here. Equal entries are not always repeated.

Experiments:
[1] = test system: differentiated 3T3-L1 adipocytes; experiment: Insulin-stimulated glucose uptake assay by (3H)2-deoxyglucose; format: cell-based, mouse; parameters: insulin-stimulated glucose uptake, Fig 1J replicates / Figure 5E raw value, insulin-stimulated glucose uptake (replicates): unit not given here
Method: The cell lines, which were tested for mycoplasma contamination and authenticated, were purchased from the Bioresource Collection and Research Center, Taiwan. All cells were cultured at 37 °C, 5% CO2 in a humidified incubator. HEK293T cells were maintained in DMEM (cat. no. SH30003.02, HyClone) supplemented with 10% fetal bovine serum (FBS) (cat. no. 04-001-1A, Biological Industries) and 1% antibiotic/antimycotic solution (cat. no. SV30079.01, HyClone). 3T3-L1 preadipocytes were maintained at ~70% confluence in DMEM with 10% calf serum (cat. no. 16170078, Gibco) and 1% antibiotic/antimycotic solution. For adipocyte differentiation, confluent 3T3-L1 cells (defined as day 0) were exposed to an induction medium containing 10% FBS, 1 μM dexamethasone (cat. no. D4902, Sigma-Aldrich), and 1 μg/ml insulin (Humulin R, Eli Lilly) in DMEM with or without 0.5 mM isobutyl-methylxanthine (cat. no. sc-201188A, Santa Cruz Biotechnology) as indicated. After two days, the medium was replaced with DMEM containing 10% FBS and 1 μg/ml insulin and was replenished every two days until assay.
Differentiated 3T3-L1 cells were starved with serum-free DMEM containing 0.2% BSA (cat. no. A9647, Sigma-Aldrich). Cells were rinsed twice with KRH buffer (137 mM NaCl, 4.7 mM KCl, 1.85 mM CaCl2, 1.3 mM MgSO4, 50 mM HEPES and 0.1% BSA, pH 7.4), and treated with or without […] insulin in the presence of 20 μM cytochalasin B (cat. no. 11328, Cayman Chemical), a GLUT inhibitor for measuring non-specific glucose uptake, for 30 min. Cells were then incubated with 0.5 μCi [^3H]-2-deoxy-D-Glucose (cat. no. NET328A001MC, PerkinElmer) and 0.1 μM 2-deoxy-D-Glucose (2DG) (cat. no. 14325, Cayman Chemical) for 5 min. Uptake of 2DG was terminated by rapidly removing medium and washing with ice-cold PBS three times. Cells were lysed with 0.1% SDS, and the radioactivity was measured using a liquid scintillation counter. Insulin-mediated glucose uptake was calculated by subtracting insulin-treated glucose uptake with basal glucose uptake.

[2] = test system: HFHSD-fed obese C57BL6/J mice; experiment: Body weight / diet-induced obesity in HFHSD-fed mice; format: in vivo, mouse; settings: 40 mg/kg/day ip; for Body weight, individual mice / Body weight, Average: in g (unit assumed)
[3] = test system: HFHSD-fed obese C57BL6/J mice; experiment: Intraperitoneal glucose tolerance test (ipGTT); format: in vivo, mouse; parameters: Figure 2H Average (glucose, ipGTT) / ipGTT / ipGTT glucose, Average / Blood glucose during glucose tolerance test (Figure 5L), Average: unit not given here; settings: for ipGTT: individual mice
Method: (§1) Glucose tolerance was evaluated by the oral (OGTT) and intraperitoneal glucose tolerance test (ipGTT) after a 6-h fast. For the OGTT, glucose water (1 mg/g) was given by oral gavage, and tail blood glucose was measured with a glucometer (ACCU-CHEK Performa, Roche) at 0, 15, 30, 45, 60, 90, and 120 min. For the ipGTT, tail blood glucose was measured at 0, 15, 30, 45, 60, 90, and 120 min after intraperitoneal injection of glucose water (1 mg/g). For the insulin tolerance test (ITT), mice were fasted for 4 h and then injected intraperitoneally with 1 U/kg of insulin (Humulin R, Eli Lilly). Tail blood glucose was measured at 0, 15, 30, 45, 60, 90, 120, and 180 min.

[4] = test system: HFHSD-fed obese C57BL6/J mice; experiment: Insulin tolerance test (ITT); format: in vivo, mouse; parameters: Figure 2I Average (glucose, ITT) / ITT / ITT glucose, Average / Blood glucose during insulin tolerance test (Figure 5M), Average: unit not given here; settings: for ITT: individual mice
Method: as §1

[5] = 40 mg/kg/day ip, 3 weeks, HFHSD-fed mice, vs vehicle

CCCCCC(=O)/C=C/[C@H]1[C@H](O)CC(=O)[C@@H]1C/C=C\CCCC(=O)O [15-keto-PGE2, 15-keto-prostaglandin E2]
insulin-stimulated glucose uptake, Fig 1J replicates ([1]; 15kPGE2 1): 1.328 and 1.441 and 0.8491 and 1.4653
insulin-stimulated glucose uptake, Fig 1J replicates ([1]; 15kPGE2 5): 3.521 and 4.331 and 2.858 and 2.553
insulin-stimulated glucose uptake, Fig 1J replicates ([1]; 15kPGE2 10): 4.083 and 4.476 and 3.119 and 3.373
insulin-stimulated glucose uptake ([1]; differentiated 3T3-L1 adipocytes): increased insulin-stimulated glucose uptake in differentiated 3T3-L1 adipocytes dose-dependently
diet-induced obesity (body weight) ([2]; 3 weeks, HFHSD-fed mice, vs vehicle): protected against diet-induced obesity
Body weight, individual mice ([2]; treatment day 1, 40 mg/kg/day): 31.70 and 29.90 and 31.10 and 26.25 and 27.55
Body weight, Average ([2]; treatment day 1): 29.83
Body weight, individual mice ([2]; treatment day 2, 40 mg/kg/day): 31.55 and 28.75 and 30.85 and 26.15 and 27.85
Body weight, Average ([2]; treatment day 2): 29.61
Body weight, Average ([2]; treatment day 3, 40 mg/kg/day): 29.4
Body weight, individual mice ([2]; treatment day 3, 40 mg/kg/day): 31.60 and 29.00 and 30.75 and 25.90 and 26.35
Body weight, individual mice ([2]; treatment day 4, 40 mg/kg/day): 32.50 and 27.95 and 30.90 and 25.75 and 26.90
Body weight, Average ([2]; treatment day 4): 29.42
Body weight, individual mice ([2]; treatment day 5, 40 mg/kg/day): 32.50 and 26.45 and 30.70 and 25.35 and 26.25
Body weight, Average ([2]; treatment day 5): 29.42
Body weight, individual mice ([2]; treatment day 6, 40 mg/kg/day): 32.60 and 26.45 and 30.00 and 25.75
Body weight, Average ([2]; treatment day 6): 29.49
Body weight, individual mice ([2]; treatment day 7, 40 mg/kg/day): 32.60 and 26.55 and 30.10 and 26.40
Body weight, Average ([2]; treatment day 7): 29.61
Body weight, individual mice ([2]; treatment day 8, 40 mg/kg/day): 31.90 and 27.35 and 30.10 and 25.05
Body weight, Average ([2]; treatment day 8): 29.92
Body weight, individual mice ([2]; treatment day 9, 40 mg/kg/day): 31.40 and 28.05 and 30.70 and 25.90
Body weight, Average ([2]; treatment day 9): 29.95
Body weight, individual mice ([2]; treatment day 10, 40 mg/kg/day): 30.70 and 28.45 and 30.20 and 26.55 and 27.35
Body weight, Average ([2]; treatment day 10): 29.99
Body weight, individual mice ([2]; treatment day 11, 40 mg/kg/day): 31.60 and 28.55 and 30.40 and 27.50 and 26.90
Body weight, Average ([2]; treatment day 11): 30.05
Body weight, Average ([2]; treatment day 12, 40 mg/kg/day): 30.2
Body weight, individual mice ([2]; treatment day 12, 40 mg/kg/day): 31.60 and 29.05 and 30.95 and 27.45 and 27.10
Body weight, individual mice ([2]; treatment day 13, 40 mg/kg/day): 31.75 and 30.2 and 31.6 and 28.55 and 28.05
Body weight, Average ([2]; treatment day 13): 30.36
Body weight, individual mice ([2]; treatment day 14, 40 mg/kg/day): 31.65 and 30.50 and 31.35 and 28.35 and 27.80
Body weight, Average ([2]; treatment day 14): 30.49
Body weight, individual mice ([2]; treatment day 15, 40 mg/kg/day): 31.70 and 29.55 and 30.65 and 27.45 and 27.00
Body weight, Average ([2]; treatment day 15): 30.22
Body weight, individual mice ([2]; treatment day 16, 40 mg/kg/day): 31.85 and 29.40 and 30.30 and 27.00 and 26.50
Body weight, Average ([2]; treatment day 16): 30.12
Body weight, individual mice ([2]; treatment day 17, 40 mg/kg/day): 32.75 and 29.85 and 31.95 and 27.85 and 26.80
Body weight, Average ([2]; treatment day 17): 30.56
Body weight, individual mice ([2]; treatment day 18, 40 mg/kg/day): 31.80 and 29.75 and 32.10 and 27.75
Body weight, Average ([2]; treatment day 18): 30.63
Body weight, individual mice ([2]; treatment day 19, 40 mg/kg/day): 33.15 and 31.50 and 32.00 and 28.35 and 27.70
Body weight, Average ([2]; treatment day 19): 30.65
Body weight, individual mice ([2]; treatment day 20, 40 mg/kg/day): 33.10 and 30.85 and 31.55 and 27.75 and 27.15
Body weight, Average ([2]; treatment day 20): 30.69
Body weight, individual mice ([2]; treatment day 21, 40 mg/kg/day): 32.55 and 30.9 and 31.6 and 28 and 28.15
Body weight, Average ([2]; treatment day 21): 30.73
glucose tolerance (ipGTT) [3, 5]: markedly improved
ipGTT ([3]; 0 min): 105 and 98 and 102 and 88 and 151 and 155 and 75 and 78 and 93 and 125 and 111
ipGTT ([3]; 15 min): 222 and 226 and 190 and 213 and 239 and 234 and 324 and 231 and 152 and 188 and 183 and 251 and 245 and 276
ipGTT ([3]; 30 min): 262 and 264 and 155 and 201 and 221 and 211 and 273 and 247 and 125 and 124 and 200 and 186 and 235 and 231 and 280
ipGTT ([3]; 45 min): 229 and 251 and 162 and 188 and 184 and 199 and 252 and 215 and 109 and 112 and 132 and 155 and 211 and 175 and 213
ipGTT ([3]; 60 min): 262 and 225 and 130 and 171 and 177 and 179 and 196 and 206 and 110 and 120 and 89 and 133 and 182 and 155 and 205
ipGTT ([3]; 90 min): 208 and 191 and 114 and 152 and 166 and 143 and 171 and 181 and 88 and 108 and 112 and 151 and 124
ipGTT ([3]; 120 min): 166 and 121 and 99 and 122 and 118 and 90 and 69 and 80 and 108 and 131 and 100 and 135
Figure 2H Average (glucose, ipGTT) ([3]; time 0): 108.467
Figure 2H Average (glucose, ipGTT) ([3]; time 15): 223.8
Figure 2H Average (glucose, ipGTT) ([3]; time 30): 214.333
Figure 2H Average (glucose, ipGTT) ([3]; time 45): 185.8
Figure 2H Average (glucose, ipGTT) ([3]; time 60): 169.333
Figure 2H Average (glucose, ipGTT) ([3]; time 90): 144.2
Figure 2H Average (glucose, ipGTT) ([3]; time 120): 109.267
insulin sensitivity (ITT) [4, 5]: markedly improved
ITT ([4]; 0 min): 113 and 114 and 91 and 147 and 149 and 115 and 92 and 118 and 94 and 110 and 98 and 125
ITT ([4]; 15 min): 59 and 78 and 70 and 67 and 83 and 90 and 111 and 75 and 45 and 63 and 82 and 49 and 92
ITT ([4]; 30 min): 56 and 79 and 54 and 62 and 52 and 71 and 66 and 57 and 43 and 75 and 46
ITT ([4]; 45 min): 34 and 60 and 37 and 51 and 42 and 62 and 56 and 47 and 44 and 30 and 54 and 50 and 29
ITT ([4]; 60 min): 23 and 57 and 21 and 58 and 46 and 66 and 49 and 34 and 31 and 26 and 51 and 53 and 50 and 39 and 29
ITT ([4]; 90 min): 22 and 65 and 25 and 41 and 63 and 57 and 31 and 37 and 56 and 38 and 49 and 24 and 27
ITT ([4]; 120 min): 46 and 53 and 25 and 39 and 54 and 62 and 47 and 31 and 70 and 51 and 36
ITT ([4]; 180 min): 98 and 66 and 25 and 65 and 84 and 62 and 77 and 73 and 54 and 78 and 69 and 82
Figure 2I Average (glucose, ITT) ([4]; time 0): 112.333
Figure 2I Average (glucose, ITT) ([4]; time 15): 74.4667
Figure 2I Average (glucose, ITT) ([4]; time 30): 60.8
Figure 2I Average (glucose, ITT) ([4]; time 45): 46.2667
Figure 2I Average (glucose, ITT) ([4]; time 60): 42.2
Figure 2I Average (glucose, ITT) ([4]; time 90): 41.1333
Figure 2I Average (glucose, ITT) ([4]; time 120): 45.6667
Figure 2I Average (glucose, ITT) ([4]; time 180): 67.6667
